SMILES strings stand for the structures. pKi: −log10 of the molar value.

For 21 compounds, Ki results are on record in patent US20230159532A1, “PARATHYROID HORMONE (PTH) RECEPTOR ANTAGONISTS AND USES THEREOF” (Crinetics Pharmaceuticals, Inc., priority 2021, published 2023).

This assay addresses T1, human PTHR1 receptor (Homo sapiens, UniProt Q03431).
T1 construct: purchased Eurofins HTS030M
T1 sequence (Q03431 27-593): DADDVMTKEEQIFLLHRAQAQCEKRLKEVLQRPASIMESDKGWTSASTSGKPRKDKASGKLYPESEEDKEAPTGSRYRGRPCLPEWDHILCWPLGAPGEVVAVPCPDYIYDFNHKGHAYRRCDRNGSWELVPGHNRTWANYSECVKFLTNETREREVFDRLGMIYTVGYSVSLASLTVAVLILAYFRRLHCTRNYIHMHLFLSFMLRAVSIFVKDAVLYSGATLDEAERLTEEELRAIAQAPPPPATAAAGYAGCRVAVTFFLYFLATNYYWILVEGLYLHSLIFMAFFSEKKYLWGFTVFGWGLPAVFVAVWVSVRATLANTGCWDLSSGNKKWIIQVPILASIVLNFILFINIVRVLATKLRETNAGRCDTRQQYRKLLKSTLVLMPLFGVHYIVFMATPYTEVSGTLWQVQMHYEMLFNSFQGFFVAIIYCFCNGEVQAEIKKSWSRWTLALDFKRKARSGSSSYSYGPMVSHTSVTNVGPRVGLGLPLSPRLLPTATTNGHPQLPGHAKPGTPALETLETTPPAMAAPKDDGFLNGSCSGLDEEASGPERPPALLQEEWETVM
As to the kind of experiment: Competitive antagonist binding assay for hPTH-R1 (radioactive competition binding, SPA beads). The settings on record: human PTHR1 membranes, [125I]-[Nle8,18,Tyr34]-PTH(1-34) 0.2 nM, 90 minutes at room temperature; read-out: hPTHR1 Ki. The method, then:
Competitive Antagonist Binding Assay Protocol for hPTH-R1 Antagonists:
The inhibition of binding to the human PTHR1 receptor was measured in a radioactive competition binding assay using the radiolabeled [^125I]-[NLE^8,18, TYR^34]-parathyroid hormone (1-34) ligand (PerkinElmer Cat# NEX244, custom synthesis) as the probe ligand for the receptor. Briefly, membranes from cells expressing the human PTHR1 (Eurofins Cat# HTS030M) were incubated with SPA beads (PerkinElmer Cat# RPNQ0001) in binding assay buffer [50 mM HEPES (Biopioneer Cat# C0113), 5 mM MgCl2 (Sigma Cat# M8266), 10 mM CaCl2 (Fisher Scientific Cat# BP510), 0.1% BSA (Fisher Scientific Cat# BP1600), 0.01% TritonX-100 (Bio-Rad Cat#161-0407), and protease inhibitors (Pierce Cat# A32963); pH 7.4]. Membranes bound to SPA bead were treated with various dilutions of compounds (final concentrations typically 0-10,000 nM), and 0.2 nM radiolabeled ligand in 96-well isoplates (PerkinElmer Cat#6005040) for 90 minutes at room temperature. The radioactive signal was detected using a MicroBetaTriLux 1450 LSC (PerkinElmer). All data manipulations to determine the Ki values were performed using GraphPad v8 (GraphPad, San Diego Calif.).
Broadly, the pKi is the Ki on a negative log10 scale, so that one unit is a factor of ten. Turning to `CNCCNc1cc(F)c(N2C(=O)N(C)c3ncc(Cl)cc3-c3ccc(Cl)cc32)c(F)c1` [1-30, 4,13-dichloro-10-(2,6-difluoro-4-{[2-(methylamino)ethyl]amino}phenyl)-8-methyl-6,8,10-triazatricyclo[9.4.0.0^2,7]pentadeca-1(11),2(7),3,5,12,14-hexaen-9-one], the negative logarithm of the Ki (pKi) is > 7.00.

For the compound `CCN1C(=O)N(c2c(F)cc(NCCNCCO)cc2F)c2cc(Cl)cc(C)c2-c2cc(F)cnc21` [1-31, 13-chloro-10-[2,6-difluoro-4-({2-[(2-hydroxyethyl)amino]ethyl}amino)phenyl]-8-ethyl-4-fluoro-15-methyl-6,8,10-triazatricyclo[9.4.0.0^2,7]pentadeca-1(11),2(7),3,5,12,14-hexaen-9-one], the pKi is > 7.00. In the case of `CCN1C(=O)N(c2c(F)cc(NCCNC)cc2F)c2cc(Cl)cc(C)c2-c2cc(F)cnc21` [1-32, 13-chloro-10-(2,6-difluoro-4-{[2-(methylamino)ethyl]amino}phenyl)-8-ethyl-4-fluoro-15-methyl-6,8,10-triazatricyclo[9.4.0.0^2,7]pentadeca-1(11),2(7),3,5,12,14-hexaen-9-one] it was > 7.00; in that of `CN1C(=O)N(c2c(F)cc(NCCN)cc2F)c2cc(Cl)ccc2-c2cc(Cl)cnc21` [1-33, 10-{4-[(2-aminoethyl)amino]-2,6-difluorophenyl}-4,13-dichloro-8-methyl-6,8,10-triazatricyclo[9.4.0.0^2,7]pentadeca-1(11),2(7),3,5,12,14-hexaen-9-one], > 7.00; in that of `CN1C(=O)N(c2c(F)cc(NCCNCCO)cc2F)c2cc(Cl)ccc2-c2cc(Cl)cnc21` [1-34, 4,13-dichloro-10-[2,6-difluoro-4-({2-[(2-hydroxyethyl)amino]ethyl}amino)phenyl]-8-methyl-6,8,10-triazatricyclo[9.4.0.0^2,7]pentadeca-1(11),2(7),3,5,12,14-hexaen-9-one], > 7.00. The figure for `CN1C(=O)N(c2c(F)cc(NCCNC3CCOCC3)cc2F)c2cc(Cl)ccc2-c2cc(Cl)cnc21` [1-35, 4,13-dichloro-10-[2,6-difluoro-4-({2-[(oxan-4-yl)amino]ethyl}amino)phenyl]-8-methyl-6,8,10-triazatricyclo[9.4.0.0^2,7]pentadeca-1(11),2(7),3,5,12,14-hexaen-9-one] is > 7.00. The figure for `CCN1C(=O)N(c2c(F)cc(NCCNC)cc2F)c2cc(Cl)cc(C)c2-c2cc(Cl)cnc21` [1-36, 4,13-dichloro-10-(2,6-difluoro-4-{[2-(methylamino)ethyl]amino}phenyl)-8-ethyl-15-methyl-6,8,10-triazatricyclo[9.4.0.0^2,7]pentadeca-1(11),2(7),3,5,12,14-hexaen-9-one] is > 7.00. Consider `CCN1C(=O)N(c2c(F)cc(NCCNCCO)cc2F)c2cc(Cl)cc(Cl)c2-c2cc(F)cnc21` [1-37, 13,15-dichloro-10-[2,6-difluoro-4-({2-[(2-hydroxyethyl)amino]ethyl}amino)phenyl]-8-ethyl-4-fluoro-6,8,10-triazatricyclo[9.4.0.0^2,7]pentadeca-1(11),2(7),3,5,12,14-hexaen-9-one], for which the pKi is > 7.00. In the case of `CCN1C(=O)N(c2c(F)cc(NCCNC)cc2F)c2cc(Cl)cc(Cl)c2-c2cc(F)cnc21` [1-38, 13,15-dichloro-10-(2,6-difluoro-4-{[2-(methylamino)ethyl]amino}phenyl)-8-ethyl-4-fluoro-6,8,10-triazatricyclo[9.4.0.0^2,7]pentadeca-1(11),2(7),3,5,12,14-hexaen-9-one] it was > 7.00; in that of `CNCCNc1cc(F)c(N2C(=O)N(C(C)C)c3ncc(Cl)cc3-c3ccc(Cl)cc32)c(F)c1` [1-39, 4,13-dichloro-10-(2,6-difluoro-4-{[2-(methylamino)ethyl]amino}phenyl)-8-(propan-2-yl)-6,8,10-triazatricyclo[9.4.0.0^2,7]pentadeca-1(11),2(7),3,5,12,14-hexaen-9-one], > 7.00; in that of `CCCN1C(=O)N(c2c(F)cc(NCCNC)cc2F)c2cc(Cl)ccc2-c2cc(Cl)cnc21` [1-40, 4,13-dichloro-10-(2,6-difluoro-4-{[2-(methylamino)ethyl]amino}phenyl)-8-propyl-6,8,10-triazatricyclo[9.4.0.0^2,7]pentadeca-1(11),2(7),3,5,12,14-hexaen-9-one], > 7.00. Take `CCN1C(=O)N(c2c(F)cc(NCC(=O)O)cc2F)c2cc(Cl)ccc2-c2cc(Cl)cnc21` [1-41, 2-[(4-{4,13-dichloro-8-ethyl-9-oxo-6,8,10-triazatricyclo[9.4.0.0^2,7]pentadeca-1(11),2(7),3,5,12,14-hexaen-10-yl}-3,5-difluorophenyl)amino]acetic acid]: the pKi is < 5.00.

`CCN1C(=O)N(c2c(F)cc(N3CC[C@@H](N)C3)cc2F)c2cc(Cl)ccc2-c2cc(Cl)cnc21` [1-42, 10-{4-[(3R)-3-aminopyrrolidin-1-yl]-2,6-difluorophenyl}-4,13-dichloro-8-ethyl-6,8,10-triazatricyclo[9.4.0.0^2,7]pentadeca-1(11),2(7),3,5,12,14-hexaen-9-one]: the pKi is > 7.00. Consider `CCN1C(=O)N(c2c(F)cc(N3CC[C@H](N)C3)cc2F)c2cc(Cl)ccc2-c2cc(Cl)cnc21` [1-43, 10-{4-[(3S)-3-aminopyrrolidin-1-yl]-2,6-difluorophenyl}-4,13-dichloro-8-ethyl-6,8,10-triazatricyclo[9.4.0.0^2,7]pentadeca-1(11),2(7),3,5,12,14-hexaen-9-one], for which the pKi is > 7.00. In the case of `CCN1C(=O)N(c2c(F)cc(N3CC(N)C3)cc2F)c2cc(Cl)ccc2-c2cc(Cl)cnc21` [1-44, 10-[4-(3-aminoazetidin-1-yl)-2,6-difluorophenyl]-4,13-dichloro-8-ethyl-6,8,10-triazatricyclo[9.4.0.0^2,7]pentadeca-1(11),2(7),3,5,12,14-hexaen-9-one], the pKi was > 7.00.

Turning to `CNCCNc1cc(F)c(N2C(=O)N(CC(F)(F)F)c3ncc(Cl)cc3-c3ccc(Cl)cc32)c(F)c1` [1-45, 4,13-dichloro-10-(2,6-difluoro-4-{[2-(methylamino)ethyl]amino}phenyl)-8-(2,2,2-trifluoroethyl)-6,8,10-triazatricyclo[9.4.0.0^2,7]pentadeca-1(11),2(7),3,5,12,14-hexaen-9-one], the pKi was > 7.00. For the compound `CNCCNc1cc(F)c(N2C(=O)N(CC3CC3)c3ncc(Cl)cc3-c3ccc(Cl)cc32)c(F)c1` [1-46, 4,13-dichloro-8-(cyclopropylmethyl)-10-(2,6-difluoro-4-{[2-(methylamino)ethyl]amino}phenyl)-6,8,10-triazatricyclo[9.4.0.0^2,7]pentadeca-1(11),2(7),3,5,12,14-hexaen-9-one], the pKi was > 7.00.

With `CC(C)N1C(=O)N(c2c(F)cc(NCCNCCO)cc2F)c2cc(Cl)ccc2-c2cc(Cl)cnc21` [1-47, 4,13-dichloro-10-[2,6-difluoro-4-({2-[(2-hydroxyethyl)amino]ethyl}amino)phenyl]-8-(propan-2-yl)-6,8,10-triazatricyclo[9.4.0.0^2,7]pentadeca-1(11),2(7),3,5,12,14-hexaen-9-one], the pKi was > 7.00. Turning to `O=C1N(CC(F)(F)F)c2ncc(Cl)cc2-c2ccc(Cl)cc2N1c1c(F)cc(NCCNCCO)cc1F` [1-48, 4,13-dichloro-10-[2,6-difluoro-4-({2-[(2-hydroxyethyl)amino]ethyl}amino)phenyl]-8-(2,2,2-trifluoroethyl)-6,8,10-triazatricyclo[9.4.0.0^2,7]pentadeca-1(11),2(7),3,5,12,14-hexaen-9-one], the pKi is > 7.00. Take `CCCN1C(=O)N(c2c(F)cc(NCCNCCO)cc2F)c2cc(Cl)ccc2-c2cc(Cl)cnc21` [1-49, 4,13-dichloro-10-[2,6-difluoro-4-({2-[(2-hydroxyethyl)amino]ethyl}amino)phenyl]-8-propyl-6,8,10-triazatricyclo[9.4.0.0^2,7]pentadeca-1(11),2(7),3,5,12,14-hexaen-9-one]: the pKi is > 7.00. As to `CCN1C(=O)N(c2c(F)cc(NCCC(=O)O)cc2F)c2cc(Cl)ccc2-c2cc(Cl)cnc21` [1-50, 3-[(4-{4,13-dichloro-8-ethyl-9-oxo-6,8,10-triazatricyclo[9.4.0.0^2,7]pentadeca-1(11),2(7),3,5,12,14-hexaen-10-yl}-3,5-difluorophenyl)amino]propanoic acid], the negative logarithm of the Ki (pKi) was < 5.00.
